Reference: patent publication US7390870B2, “Immune-enhancing peptides” (Posco, priority 2001, dated 2008)
No end group written: not given here.

Assays:
[1] = tested on: fura-2-loaded differentiated HL60 cells; assay: Cross-desensitization of [Ca2+]i increase between fMLF and the peptides; type: cell-based, human; settings: HFYLPm 1 μM, HFYLPM and MFYLPM 10 μM
Method: (§1) The level of [Ca^2+]i was determined by Grynkiewicz's method using fura-2/AM (21). Briefly, prepared cells were incubated with 3 μM fura-2/AM at 37° C. for 50 minutes in a fresh serum-free RPMI 1640 medium under continuous stirring. 2×10^6 cells were aliquoted for each assay in Ca^2+-free Locke's solution (154 mM NaCl, 5.6 mM KCl1.2 mM MgCl2, 5 mM HEPES, pH 7.3, 10 mM glucose, and 0.2 mM EGTA). The fluorescence changes at the dual excitation wavelengths of 340 nm and 380 nm and the emission wavelength of 500 nm were measured, and the calibrated fluorescence ratio was translated into [Ca^2+]i.
Among various agonists, fMLF is known to cause superoxide production and [Ca^2+]i increase in phagocytic cells by binding to its specific receptor (7). To check whether the novel peptides can cross-desensitize the signaling by fMLF, the effect of fMLF on the novel peptides-induced [Ca^2+]i increase and vice versa was examined. […] The results of FIG. 6 shown are from one experiment that is representative of at least three independent experiments.
In FIG. 6, “Hm” means HFYLPm, “HM” means HFYLPM, and “MM” means MFYLPM. The concentrations used were 1 μM (HFYLPm and fMLF) and 10 μM (HFYLPM and MFYLPM). 340 nm/380 mn ratios in fluorescence were monitored on fura-2-loaded differentiated HL60 cells before and during sequential addition of agonists at the times indicated by the arrows.

[2] = tested on: human neutrophils; assay: [Ca2+]i increase in human neutrophils (fura-2); type: cell-based; settings: FIG. 4A; 1 μM peptide
Method: as §1
(§2) From the fact that HFYLPM, MFYLPM, and HFYLPm stimulate human monocytes, effects of the peptides on other leukocytes such as neutrophils were evaluated. Prepared human primary monocytes, neutrophils, cultured HL60, Jurkat, U937, NIH3T3, 3Y1, 3T3L1, and PC12 cells were loaded with fura-2 and stimulated with effective concentrations of the three peptides (1 μM for monocyte and neutrophil; 10 μM for HL60 and Jurkat; 20 μM for U937, NIH3T3, 3Y1, 3T3L1, and PC12). The peak level of the [Ca^2+]i increase was recorded and superoxide generation was measured using cytochrome c reduction assay. The results are shown FIG. 4. The data of FIG. 4 are presented as means ±S.E. from at least three independent experiments.

[3] = tested on: differentiated HL60 cells; assay: [Ca2+]i increase in differentiated HL60 cells (dHL60, granulocyte phenotype); type: cell-based, human; settings: FIG. 5; various concentrations
Method: U937 (human histiocytic lymphoma cells), HL60 (human promyelocytic leukemia cells), Jurkat (human T cell leukemia cells), NIH3T3 (NIH Swiss mouse embryo fibroblasts), 3Y1 (Rat embryonic fibroblasts), 3T3L1 (preadipocytes), and PC12 (rat adrenal pheochromocytoma cells) were obtained from the American Type Culture Collection (Rockville, Md.) and maintained as re, commended. The cells were maintained at about 1×10^6 cells/ml under standard incubator conditions (humidified atmosphere, 95% air, 5% CO2, 37° C.). HL60 cells were induced to differentiate into the granulocyte phenotype by adding dimethylsulfoxide (DMSO) (final concentration 1.25%, v/v) for 4 days to the culture medium as has been described before (18).
as §1, with “2×10^6 cells were aliquoted for each assay in Ca^2+-free Locke's solution (154 mM NaCl, 5.6 mM KCl1.2 mM MgCl2, 5 mM HEPES, pH 7.3, 10 mM glucose, and 0.2 mM EGTA).” left out
(§3) A test where the three peptides on HL60 cells that had differentiated into granulocytes after having been cultured in the presence of 1.25% DMSO for 4 days was performed. […] The peak level of the [Ca^2+]i increase was recorded. […]

[4] = tested on: human neutrophil; assay: Chemotaxis assay, human neutrophils (multiwell chamber); type: cell-based; settings: similar concentrations as for monocyte migration
Method: Chemotaxis assays of the peptide were performed using multiwell chambers (Neuroprobe Inc., Gaithersburg, Md.) (20). Briefly, the prepared isolated human monocytes were suspended in RPMI at a concentration of 1×10^6 cells/ml of serum-free RPMI, and 25 □ of the suspension were placed onto the upper well of a 96-well chemotaxis chamber that was separated by a […] filter with a 5 □ pore size (3 □ diameter pores not coated with polyvinylpyrrolidone for neutrophils) from peptides or an fMLF-containing lower well. After incubation for 2 hours (90 minutes for neutrophils) at 37° C., non-migrated cells were removed by scraping them out, and cells that migrated across the filter were dehydrated, fixed, and stained with hematoxylin (Sigma, St. Louis, Mo.). The stained cells in five randomly chosen high power fields (HPF) (400×) in that well were then counted (21). The numbers of migrated cells were determined by counting them in a high power field (400×). For a checkboard analysis, cells were re-suspended in RPMI containing various concentrations of the peptide just before transferring them to the upper wells as described before (22).

[5] = tested on: HL60 human promyelocytic cells; assay: [Ca2+]i increase in undifferentiated HL60 cells (fura-2); type: cell-based
Method: as §1
From the fact that HFYLPM, MFYLPM, and HFYLPm stimulate human monocytes, effects of the peptides on other leukocytes such as neutrophils were evaluated. […] The peak level of the [Ca^2+]i increase was recorded and superoxide generation was measured using cytochrome c reduction assay. […]
as §3

[6] = tested on: NIH3T3 (NIH Swiss mouse embryo fibroblast); assay: [Ca2+]i rise in NIH3T3 cells (fura-2); type: cell-based; settings: FIG. 4A; 20 μM peptide
Method: as §1, §2

Met-Phe-Tyr-Leu-Pro-Met-CONH2 (MFYLPM-NH2)
desensitization to subsequent stimulation with the same peptide ([Ca2+]i) ([1]; FIG. 6): complete desensitization | block of the calcium response to a following saturating concentration of fMLF ([1]; FIG. 6 below, fMLF 1 μM): completely block | [Ca2+]i response to the peptide following a saturating concentration of fMLF ([1]; FIG. 6 upper, fMLF 1 μM): considerable responses | [Ca2+]i increase in neutrophils [2]: increase their [Ca^2+]i | [Ca2+]i rise in differentiated HL60 cells [3]: stimulated both undifferentiated and differentiated HL60 cells | cellular migration in human neutrophil [4]: induced cellular migration | [Ca2+]i increase in HL60 cells ([5]; FIG. 4A, HFYLPM up to 20 μM): caused a [Ca^2+]i increase | [Ca2+]i rise in undifferentiated HL60 cells ([5]; FIG. 5, various concentrations): stimulated both undifferentiated and differentiated HL60 cells | [Ca2+]i rise in NIH3T3 cells [6]: no response
